Laboratory results reported in ChEMBL document CHEMBL5331096, “Pseudo-irreversible butyrylcholinesterase inhibitors: Structure-activity relationships, computational and crystallographic study of the N-dialkyl O-arylcarbamate warhead” (Eur J Med Chem, 2023).
Active and inactive are the calls of the source. No cut-off for these calls is given here.

Legend:
Acetylcholinesterase [1] = biological target: T1, Acetylcholinesterase (Homo sapiens, UniProt P22303); assay: Inhibition of human AChE using acetylthiocholine iodide as substrate preincubated for 5 mins followed by substrate addition and measured for 2 mins by spectrophotometry based Ellman's method
T1 sequence (P22303 whole entry): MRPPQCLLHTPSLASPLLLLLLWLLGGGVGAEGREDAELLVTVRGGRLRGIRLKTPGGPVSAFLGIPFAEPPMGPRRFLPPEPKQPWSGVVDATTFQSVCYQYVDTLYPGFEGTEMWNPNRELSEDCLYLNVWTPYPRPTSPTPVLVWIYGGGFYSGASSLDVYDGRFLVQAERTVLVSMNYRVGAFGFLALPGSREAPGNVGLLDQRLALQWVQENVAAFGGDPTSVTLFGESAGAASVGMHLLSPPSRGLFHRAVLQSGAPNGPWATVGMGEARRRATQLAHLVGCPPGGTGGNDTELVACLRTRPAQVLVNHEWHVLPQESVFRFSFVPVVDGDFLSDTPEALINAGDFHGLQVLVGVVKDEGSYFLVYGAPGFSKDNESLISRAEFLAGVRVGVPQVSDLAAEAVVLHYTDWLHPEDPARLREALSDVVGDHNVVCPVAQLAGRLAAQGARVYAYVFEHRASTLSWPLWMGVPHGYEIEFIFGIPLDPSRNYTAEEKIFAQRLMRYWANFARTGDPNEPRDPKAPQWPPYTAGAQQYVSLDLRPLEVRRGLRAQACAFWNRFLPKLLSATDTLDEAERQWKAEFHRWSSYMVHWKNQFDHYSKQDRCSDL

Cholinesterase [2] = biological target: T2, Cholinesterase (Homo sapiens, UniProt P06276); assay: Inhibition of human BChE using butyrylthiocholine iodide as substrate preincubated for 5 mins followed by substrate addition and measured for 2 mins by spectrophotometry based Ellman's method
T2 sequence (P06276 whole entry): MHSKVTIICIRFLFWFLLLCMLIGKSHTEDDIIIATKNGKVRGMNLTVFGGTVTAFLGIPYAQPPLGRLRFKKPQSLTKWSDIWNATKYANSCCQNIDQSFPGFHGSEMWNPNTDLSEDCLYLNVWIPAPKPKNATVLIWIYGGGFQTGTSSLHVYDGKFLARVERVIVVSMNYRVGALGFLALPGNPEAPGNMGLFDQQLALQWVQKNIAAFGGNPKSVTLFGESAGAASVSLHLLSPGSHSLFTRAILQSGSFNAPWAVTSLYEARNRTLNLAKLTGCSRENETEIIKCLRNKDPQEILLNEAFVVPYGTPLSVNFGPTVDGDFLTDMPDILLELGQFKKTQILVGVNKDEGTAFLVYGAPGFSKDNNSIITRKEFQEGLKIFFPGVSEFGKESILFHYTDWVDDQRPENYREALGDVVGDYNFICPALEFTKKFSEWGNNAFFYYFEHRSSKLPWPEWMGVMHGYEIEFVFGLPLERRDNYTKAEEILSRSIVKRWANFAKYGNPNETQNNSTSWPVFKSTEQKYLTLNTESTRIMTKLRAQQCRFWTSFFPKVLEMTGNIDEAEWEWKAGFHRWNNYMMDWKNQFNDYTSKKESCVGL

Cholinesterase [3] = biological target: T2, Cholinesterase; assay: Time dependent inhibition of human BChE using butyrylthiocholine iodide as substrate preincubated for 5 mins followed by substrate addition and measured for 2 mins by spectrophotometry based Ellman's method; conditions: time 7.0 min
Acetylcholinesterase [4] = biological target: T1, Acetylcholinesterase; assay: Time dependent inhibition of human AChE using acetylthiocholine iodide as substrate preincubated for 5 mins followed by substrate addition and measured for 2 mins by spectrophotometry based Ellman's method; conditions: time 7.0 min
Cholinesterase [5] = biological target: T2, Cholinesterase; assay: Binding affinity to human BChE assessed as gibbs free energy change
Cholinesterase [6] = biological target: T2, Cholinesterase; assay: Binding affinity to human BChE assessed as decarbamoylation rate constant at 25 degree C incubated for 1 hr by Ellman's method
Cholinesterase [7] = biological target: T2, Cholinesterase; assay: Binding affinity to human BChE assessed as half life incubated for 1 hr by Ellman's method
Cholinesterase [8] = biological target: T2, Cholinesterase; assay: Binding affinity to human BChE assessed as carbamoylation rate constant by Ellman's method
SH-SY5Y = assay: Cytotoxicity against human SH-SY5Y cells assessed as inhibition of cell growth measured after 48 hrs by MTS assay; type: functional, cell-based
Cholinesterase [9] = biological target: T2, Cholinesterase; assay: Binding affinity to human BChE assessed as pseudo-first order inhibition rate at 5 nM by Ellman's method
[10] = biological target: Cholinesterases; ACHE & BCHE (Homo sapiens) (UniProt P06276+P22303); assay: Selectivity ratio of IC50 for human AChE to IC50 for human BChE; type: protein assay
Chain of Cholinesterases; ACHE & BCHE (Homo sapiens) (P06276 whole entry, looked up): as the sequence (P06276 whole entry) above
Chain of Cholinesterases; ACHE & BCHE (Homo sapiens) (P22303 whole entry, looked up): as the sequence (P22303 whole entry) above

HepG2 = assay: Cytotoxicity against human HepG2 cells assessed as inhibition of cell growth measured after 48 hrs by MTS assay; type: functional, cell-based; conditions: HepG2, 48 h
Cholinesterase [11] = biological target: T2, Cholinesterase; assay: Binding affinity to human BChE assessed as pseudo-first order inhibition rate at 50 nM by Ellman's method
Cholinesterase [12] = biological target: T2, Cholinesterase; assay: Binding affinity to human BChE assessed as inhibition constant
Cholinesterase [13] = biological target: T2, Cholinesterase; assay: Binding affinity to human BChE assessed as pseudo-first order inhibition rate at 20 nM by Ellman's method
Cholinesterase [14] = biological target: T2, Cholinesterase; assay: Binding affinity to human BChE assessed as pseudo-first order inhibition rate at 10 nM by Ellman's method
Acetylcholinesterase [15] = biological target: T1, Acetylcholinesterase; assay: Binding affinity to recombinant human AChE assessed as appearance of fluorescent bands at 10 uM incubated for 4 hrs in presence of BW284c51 by Western blot analysis
Cholinesterase [16] = biological target: T2, Cholinesterase; assay: Binding affinity to human BChE plasma assessed as appearance of fluorescent bands at 10 uM incubated for 30 mins in presence of isoOMPA by Western blot analysis; type: cell-free
Cholinesterase [17] = biological target: T2, Cholinesterase; assay: Binding affinity to human BChE plasma assessed as appearance of fluorescent bands at 10 uM incubated for 30 mins in presence of ethopropazine by Western blot analysis; type: cell-free
Cholinesterase [18] = biological target: T2, Cholinesterase; assay: Binding affinity to human BChE plasma assessed as appearance of fluorescent bands at 10 uM incubated for 30 mins by Western blot analysis; type: cell-free
Acetylcholinesterase [19] = biological target: T1, Acetylcholinesterase; assay: Binding affinity to recombinant human AChE assessed as appearance of fluorescent bands at 10 uM incubated for 4 hrs by Western blot analysis
Cholinesterase [20] = biological target: T2, Cholinesterase; assay: Binding affinity to recombinant human BChE assessed as appearance of fluorescent bands at 10 uM incubated for 4 hrs by Western blot analysis
Cholinesterase [21] = biological target: T2, Cholinesterase; assay: Binding affinity to human BChE plasma assessed as appearance of fluorescent bands at 10 uM incubated for 30 mins in presence of BW284c51 by Western blot analysis; type: cell-free
Cholinesterase [22] = biological target: T2, Cholinesterase; assay: Inhibition of human BChE using butyrylthiocholine iodide as substrate preincubated for 30 mins followed by substrate addition and measured for 2 mins by spectrophotometry based Ellman's method
Cholinesterase [23] = biological target: T2, Cholinesterase; assay: Time dependent inhibition of human BChE using butyrylthiocholine iodide as substrate preincubated for 30 mins followed by substrate addition and measured for 2 mins by spectrophotometry based Ellman's method; conditions: time 32.0 min
Acetylcholinesterase [24] = biological target: T1, Acetylcholinesterase; assay: Inhibition of human AChE assessed as residual activity using acetylthiocholine iodide as substrate at 100 uM preincubated for 30 mins followed by substrate addition and measured for 2 mins by spectrophotometry based Ellman's method relative to control; conditions: time 32.0 min
Acetylcholinesterase [25] = biological target: T1, Acetylcholinesterase; assay: Time dependent inhibition of human AChE using acetylthiocholine iodide as substrate preincubated for 30 mins followed by substrate addition and measured for 2 mins by spectrophotometry based Ellman's method; conditions: time 32.0 min

Row | SMILES | IC50 (Acetylcholinesterase [1]) | IC50 (Cholinesterase [2]) | inhibition (Cholinesterase [3]) | inhibition (Acetylcholinesterase [4]) | other results
1 | CCN(C)C(=O)Oc1cccc2c(CN(C)CCC3CCCCCC3)c[nH]c12 | 6820 nM | 10.4 nM | Active | Active | 
2 | CN(CCC1CCCCCC1)Cc1c[nH]c2c(OC(=O)N3CCCCC3)cccc12 | 529 nM | 5.28 nM |  | Active | 
3 | CC(C)N(C(=O)Oc1cccc2c(CN(C)CCC3CCCCCC3)c[nH]c12)C(C)C | 4630 nM | 230 nM | inactive | inactive | 
4 | CN(CCC1CCCCCC1)Cc1c[nH]c2cc(OC(=O)N(C)C)ccc12 | 6720 nM | 45.6 nM | Active | Active | 
5 | CCN(CC)C(=O)Oc1cccc2c(CN(C)CCC3CCCCCC3)c[nH]c12 | 5590 nM | 61 nM | Active | inactive | deltaG (Cholinesterase [5]): 25.9 kcal/mol; K (Cholinesterase [6]): 0.002 h⁻¹; T1/2 (Cholinesterase [7]): 318 h
6 | C#CCN(C)C(=O)Oc1cccc2c(CN(C)CCC3CCCCCC3)c[nH]c12 | 340 nM | 7.75 nM |  | Active | deltaG (Cholinesterase [5]): 24.8 kcal/mol; K (Cholinesterase [6]): 0.014 h⁻¹; T1/2 (Cholinesterase [7]): 49 h
7 | C#CCN(C)C(=O)Oc1ccc2c(CN(C)CCC3CCCCCC3)c[nH]c2c1 | 1460 nM | 10.2 nM | inactive | inactive | 
8 | CN(CCC1CCCCCC1)Cc1c[nH]c2c(O)cccc12 | 11600 nM | 373 nM |  |  | 
9 | CN(CCC1CCCCCC1)Cc1c[nH]c2c(OC(=O)N(C)C(C)(C)C)cccc12 | 10000 nM | 147 nM | inactive | inactive | 
10 | CON(C)C(=O)Oc1cccc2c(CN(C)CCC3CCCCCC3)c[nH]c12 | 1100 nM | 158 nM |  | inactive | 
11 | C#CCCCN(C)C(=O)Oc1cccc2c(CN(C)CCC3CCCCCC3)c[nH]c12 | 1080 nM | 12.3 nM | Active | Active | deltaG (Cholinesterase [5]): 24.8 kcal/mol; K (Cholinesterase [6]): 0.015 h⁻¹; T1/2 (Cholinesterase [7]): 46.5 h
12 | CN(CCC1CCCCCC1)Cc1c[nH]c2c(OC(=O)N(C)C)cccc12 | 559 nM | 1.76 nM | Active | Active | K (Cholinesterase [8]): 0.177 M⁻¹ s⁻¹; IC50 (SH-SY5Y): 5800 nM; Kobs (Cholinesterase [9]): 0.447 min⁻¹; Ratio IC50 [10]: 300; IC50 (HepG2): 7100 nM; deltaG (Cholinesterase [5]): 24 kcal/mol; Kobs (Cholinesterase [11]): 3.75 min⁻¹; Ki (Cholinesterase [12]): 1.05 nM; K (Cholinesterase [6]): 0.053 h⁻¹; Kobs (Cholinesterase [13]): 1.85 min⁻¹; Kobs (Cholinesterase [14]): 0.677 min⁻¹; T1/2 (Cholinesterase [7]): 13 h
13 | CN(CCC1CCCCCC1)Cc1c[nH]c2c(OC(=O)N3CCOCC3)cccc12 | 3580 nM | 11.4 nM |  | Active | 
14 | C#CCCCCCCCCCN(C)C(=O)Oc1cccc2c(CN(C)CCC3CCCCCC3)c[nH]c12 | 123 nM | 3.77 nM | Active | Active | Activity (Acetylcholinesterase [15]): inactive; Activity (Cholinesterase [16]): inactive; Activity (Cholinesterase [17]): inactive; Activity (Cholinesterase [18]): Active; Activity (Acetylcholinesterase [19]): Active; Activity (Cholinesterase [20]): Active; Activity (Cholinesterase [21]): inactive
15 | C#CCN(CC)C(=O)Oc1cccc2c(CN(C)CCC3CCCCCC3)c[nH]c12 | 7530 nM | 21.9 nM | Active | Active | 
16 | CC(C)N(C)C(=O)Oc1cccc2c(CN(C)CCC3CCCCCC3)c[nH]c12 | 2830 nM | 114 nM | Active | Active | 
17 | CC(C)N(C(=O)Oc1ccc2c(CN(C)CCC3CCCCCC3)c[nH]c2c1)C(C)C | 337 nM | 86.2 nM | inactive | inactive | 
18 | O=C(Oc1cccc2cc[nH]c12)N1CCOCC1 |  |  |  |  | IC50 (Cholinesterase [22]): 2390 nM; inhibition (Cholinesterase [23]): inactive; Activity (Acetylcholinesterase [24]): 19.3%
19 | CN(C)C(=O)Oc1cccc2cc[nH]c12 |  |  |  |  | IC50 (Cholinesterase [22]): 1660 nM; inhibition (Acetylcholinesterase [25]): Active; inhibition (Cholinesterase [23]): Active; Activity (Acetylcholinesterase [24]): 2.4%
20 | CC(C)N(C(=O)Oc1cccc2cc[nH]c12)C(C)C |  |  |  |  | IC50 (Cholinesterase [22]): 12800 nM; inhibition (Acetylcholinesterase [25]): inactive; inhibition (Cholinesterase [23]): inactive; Activity (Acetylcholinesterase [24]): 66.5%
21 | CN(CCC1CCCCCC1)Cc1c[nH]c2c(OC(=O)N(C)N(C)C)cccc12 | 5560 nM | 13.2 nM | Active | Active | 
22 | C#CCN(CC#C)C(=O)Oc1cccc2c(CN(C)CCC3CCCCCC3)c[nH]c12 | 464 nM | 32.8 nM |  | Active | deltaG (Cholinesterase [5]): 24 kcal/mol; K (Cholinesterase [6]): 0.062 h⁻¹; T1/2 (Cholinesterase [7]): 11.2 h
23 | CCN(C)C(=O)Oc1cccc2cc[nH]c12 |  |  |  |  | IC50 (Cholinesterase [22]): 1390 nM; inhibition (Acetylcholinesterase [25]): inactive; inhibition (Cholinesterase [23]): Active; Activity (Acetylcholinesterase [24]): 56.2%
24 | C#CCN(C(=O)Oc1cccc2c(CN(C)CCC3CCCCCC3)c[nH]c12)C(C)C | 5350 nM | 80.5 nM | inactive | inactive | 
25 | CN(CCC1CCCCCC1)Cc1c[nH]c2c(OC(=O)N(C)Cc3ccccc3)cccc12 | 531 nM | 11.6 nM | Active | Active | deltaG (Cholinesterase [5]): 25.2 kcal/mol; K (Cholinesterase [6]): 0.007 h⁻¹; T1/2 (Cholinesterase [7]): 92.2 h
